Legend:
Test in all cases: relative viability (nuclei count vs DMSO), 5 days (fraction); higher = more cells survive
Pemetrexed + Luminespib = compound: Nc1nc2[nH]cc(CCc3ccc(C(=O)N[C@@H](CCC(=O)O)C(=O)O)cc3)c2c(=O)[nH]1 [Pemetrexed] + CCNC(=O)c1noc(-c2cc(C(C)C)c(O)cc2O)c1-c1ccc(CN2CCOCC2)cc1 [Luminespib] (partner 0.01 µM)
Method in brief: (§1)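 After 5 days of treatment, lung cancer cells in 1536-well plates were fixed and stained in a single step (final 0.05% Triton X-100, 1% formaldehyde, 1 ug/ml Hoechst) and their nuclei counted on 4× images. Treatment had been applied by pin tool the day after seeding as one drug alone or as a fixed anchor-drug dose with five library-drug doses (not always all listed) in √10 steps. Relative viability is the nuclei count of treated wells divided by that of vehicle wells, and values are medians of duplicate plates.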

Idelalisib + Crizotinib = compound: CC[C@H](Nc1ncnc2[nH]cnc12)c1nc2cccc(F)c2c(=O)n1-c1ccccc1 [Idelalisib] + C[C@@H](Oc1cc(-c2cnn(C3CCNCC3)c2)cnc1N)c1c(Cl)ccc(F)c1Cl [Crizotinib] (partner 1 µM)
Method in brief: as §1

Idelalisib + Trametinib = compound: CC[C@H](Nc1ncnc2[nH]cnc12)c1nc2cccc(F)c2c(=O)n1-c1ccccc1 [Idelalisib] + CC(=O)Nc1cccc(-n2c(=O)n(C3CC3)c(=O)c3c(Nc4ccc(I)cc4F)n(C)c(=O)c(C)c32)c1 [Trametinib] (partner 0.02 µM)
Method in brief: as §1

Idelalisib + Vorinostat = compound: CC[C@H](Nc1ncnc2[nH]cnc12)c1nc2cccc(F)c2c(=O)n1-c1ccccc1 [Idelalisib] + O=C(CCCCCCC(=O)Nc1ccccc1)NO [Vorinostat] (partner 1 µM)
Method in brief: as §1

Cell Line: NCI-H2009
- relative viability (Pemetrexed + Luminespib; first compound 0.002 µM): 0.94
- relative viability (Pemetrexed + Luminespib; first compound 0.006325 µM): 0.995
- relative viability (Pemetrexed + Luminespib; first compound 0.02 µM): 1.04
- relative viability (Pemetrexed + Luminespib; first compound 0.06325 µM): 0.991
- relative viability (Pemetrexed + Luminespib; first compound 0.2 µM): 1.03
- relative viability (Idelalisib + Crizotinib; first compound 0.04 µM): 1.02
- relative viability (Idelalisib + Crizotinib; first compound 0.1265 µM): 1.04
- relative viability (Idelalisib + Crizotinib; first compound 0.4 µM): 1.03
- relative viability (Idelalisib + Crizotinib; first compound 1.265 µM): 0.991
- relative viability (Idelalisib + Crizotinib; first compound 4 µM): 1.01
- relative viability (Idelalisib + Trametinib; first compound 0.04 µM): 0.297
- relative viability (Idelalisib + Trametinib; first compound 0.1265 µM): 0.232
- relative viability (Idelalisib + Trametinib; first compound 0.4 µM): 0.201
- relative viability (Idelalisib + Trametinib; first compound 1.265 µM): 0.228
- relative viability (Idelalisib + Trametinib; first compound 4 µM): 0.179
- relative viability (Idelalisib + Vorinostat; first compound 0.04 µM): 0.751
- relative viability (Idelalisib + Vorinostat; first compound 0.1265 µM): 0.751
- relative viability (Idelalisib + Vorinostat; first compound 0.4 µM): 0.663
- relative viability (Idelalisib + Vorinostat; first compound 1.265 µM): 0.688
- relative viability (Idelalisib + Vorinostat; first compound 4 µM): 0.72

Cell Line: NCI-H2023
- relative viability (Pemetrexed + Luminespib; first compound 0.002 µM): 0.717
- relative viability (Pemetrexed + Luminespib; first compound 0.006325 µM): 0.656
- relative viability (Pemetrexed + Luminespib; first compound 0.02 µM): 0.932
- relative viability (Pemetrexed + Luminespib; first compound 0.06325 µM): 0.483
- relative viability (Pemetrexed + Luminespib; first compound 0.2 µM): 0.227
- relative viability (Idelalisib + Crizotinib; first compound 0.04 µM): 0.63
- relative viability (Idelalisib + Crizotinib; first compound 0.1265 µM): 0.662
- relative viability (Idelalisib + Crizotinib; first compound 0.4 µM): 0.487
- relative viability (Idelalisib + Crizotinib; first compound 1.265 µM): 0.579
- relative viability (Idelalisib + Crizotinib; first compound 4 µM): 0.54
- relative viability (Idelalisib + Trametinib; first compound 0.04 µM): 0.487
- relative viability (Idelalisib + Trametinib; first compound 0.1265 µM): 0.533
- relative viability (Idelalisib + Trametinib; first compound 0.4 µM): 0.49
- relative viability (Idelalisib + Trametinib; first compound 1.265 µM): 0.537
- relative viability (Idelalisib + Trametinib; first compound 4 µM): 0.37
- relative viability (Idelalisib + Vorinostat; first compound 0.04 µM): 0.909
- relative viability (Idelalisib + Vorinostat; first compound 0.1265 µM): 0.702
- relative viability (Idelalisib + Vorinostat; first compound 0.4 µM): 0.469
- relative viability (Idelalisib + Vorinostat; first compound 1.265 µM): 0.375
- relative viability (Idelalisib + Vorinostat; first compound 4 µM): 0.682

Cell Line: NCI-H2085
- relative viability (Pemetrexed + Luminespib; first compound 0.002 µM): 0.386
- relative viability (Pemetrexed + Luminespib; first compound 0.006325 µM): 0.304
- relative viability (Pemetrexed + Luminespib; first compound 0.02 µM): 0.449
- relative viability (Pemetrexed + Luminespib; first compound 0.06325 µM): 0.414
- relative viability (Pemetrexed + Luminespib; first compound 0.2 µM): 0.427
- relative viability (Idelalisib + Crizotinib; first compound 0.04 µM): 0.86
- relative viability (Idelalisib + Crizotinib; first compound 0.1265 µM): 0.897
- relative viability (Idelalisib + Crizotinib; first compound 0.4 µM): 0.761
- relative viability (Idelalisib + Crizotinib; first compound 1.265 µM): 0.736
- relative viability (Idelalisib + Crizotinib; first compound 4 µM): 0.81
- relative viability (Idelalisib + Trametinib; first compound 0.04 µM): 0.569
- relative viability (Idelalisib + Trametinib; first compound 0.1265 µM): 0.299
- relative viability (Idelalisib + Trametinib; first compound 0.4 µM): 0.382
- relative viability (Idelalisib + Trametinib; first compound 1.265 µM): 0.369
- relative viability (Idelalisib + Trametinib; first compound 4 µM): 0.327
- relative viability (Idelalisib + Vorinostat; first compound 0.04 µM): 0.794
- relative viability (Idelalisib + Vorinostat; first compound 0.1265 µM): 0.788
- relative viability (Idelalisib + Vorinostat; first compound 0.4 µM): 0.702
- relative viability (Idelalisib + Vorinostat; first compound 1.265 µM): 0.614
- relative viability (Idelalisib + Vorinostat; first compound 4 µM): 0.484

Cell Line: NCI-H2087
- relative viability (Pemetrexed + Luminespib; first compound 0.002 µM): 0.206
- relative viability (Pemetrexed + Luminespib; first compound 0.006325 µM): 0.204
- relative viability (Pemetrexed + Luminespib; first compound 0.02 µM): 0.243
- relative viability (Pemetrexed + Luminespib; first compound 0.06325 µM): 0.152
- relative viability (Pemetrexed + Luminespib; first compound 0.2 µM): 0.136
- relative viability (Idelalisib + Crizotinib; first compound 0.04 µM): 0.894
- relative viability (Idelalisib + Crizotinib; first compound 0.1265 µM): 0.911
- relative viability (Idelalisib + Crizotinib; first compound 0.4 µM): 0.901
- relative viability (Idelalisib + Crizotinib; first compound 1.265 µM): 1.1
- relative viability (Idelalisib + Crizotinib; first compound 4 µM): 0.93
- relative viability (Idelalisib + Trametinib; first compound 0.04 µM): 0.206
- relative viability (Idelalisib + Trametinib; first compound 0.1265 µM): 0.23
- relative viability (Idelalisib + Trametinib; first compound 0.4 µM): 0.204
- relative viability (Idelalisib + Trametinib; first compound 1.265 µM): 0.205
- relative viability (Idelalisib + Trametinib; first compound 4 µM): 0.156
- relative viability (Idelalisib + Vorinostat; first compound 0.04 µM): 0.592
- relative viability (Idelalisib + Vorinostat; first compound 0.1265 µM): 0.667
- relative viability (Idelalisib + Vorinostat; first compound 0.4 µM): 0.614
- relative viability (Idelalisib + Vorinostat; first compound 1.265 µM): 0.781
- relative viability (Idelalisib + Vorinostat; first compound 4 µM): 0.204

Cell Line: NCI-H2126
- relative viability (Pemetrexed + Luminespib; first compound 0.002 µM): 0.827
- relative viability (Pemetrexed + Luminespib; first compound 0.006325 µM): 0.96
- relative viability (Pemetrexed + Luminespib; first compound 0.02 µM): 0.89
- relative viability (Pemetrexed + Luminespib; first compound 0.06325 µM): 0.883
- relative viability (Pemetrexed + Luminespib; first compound 0.2 µM): 0.831
- relative viability (Idelalisib + Crizotinib; first compound 0.04 µM): 1.04
- relative viability (Idelalisib + Crizotinib; first compound 0.1265 µM): 1
- relative viability (Idelalisib + Crizotinib; first compound 0.4 µM): 0.967
- relative viability (Idelalisib + Crizotinib; first compound 1.265 µM): 1.03
- relative viability (Idelalisib + Crizotinib; first compound 4 µM): 1.02
- relative viability (Idelalisib + Trametinib; first compound 0.04 µM): 0.602
- relative viability (Idelalisib + Trametinib; first compound 0.1265 µM): 0.602
- relative viability (Idelalisib + Trametinib; first compound 0.4 µM): 0.542
- relative viability (Idelalisib + Trametinib; first compound 1.265 µM): 0.575
- relative viability (Idelalisib + Trametinib; first compound 4 µM): 0.485
- relative viability (Idelalisib + Vorinostat; first compound 0.04 µM): 0.932
- relative viability (Idelalisib + Vorinostat; first compound 0.1265 µM): 0.865
- relative viability (Idelalisib + Vorinostat; first compound 0.4 µM): 0.464
- relative viability (Idelalisib + Vorinostat; first compound 1.265 µM): 0.861
- relative viability (Idelalisib + Vorinostat; first compound 4 µM): 0.671

Cell Line: NCI-H2170
- relative viability (Pemetrexed + Luminespib; first compound 0.002 µM): 0.684
- relative viability (Pemetrexed + Luminespib; first compound 0.006325 µM): 0.861
- relative viability (Pemetrexed + Luminespib; first compound 0.02 µM): 0.709
- relative viability (Pemetrexed + Luminespib; first compound 0.06325 µM): 0.749
- relative viability (Pemetrexed + Luminespib; first compound 0.2 µM): 0.583
- relative viability (Idelalisib + Crizotinib; first compound 0.04 µM): 1.23
- relative viability (Idelalisib + Crizotinib; first compound 0.1265 µM): 1.18
- relative viability (Idelalisib + Crizotinib; first compound 0.4 µM): 1.07
- relative viability (Idelalisib + Crizotinib; first compound 1.265 µM): 1.07
- relative viability (Idelalisib + Crizotinib; first compound 4 µM): 0.983
- relative viability (Idelalisib + Trametinib; first compound 0.04 µM): 1.05
- relative viability (Idelalisib + Trametinib; first compound 0.1265 µM): 0.941
- relative viability (Idelalisib + Trametinib; first compound 0.4 µM): 0.851
- relative viability (Idelalisib + Trametinib; first compound 1.265 µM): 0.893
- relative viability (Idelalisib + Trametinib; first compound 4 µM): 0.805
- relative viability (Idelalisib + Vorinostat; first compound 0.04 µM): 0.732
- relative viability (Idelalisib + Vorinostat; first compound 0.1265 µM): 0.805
- relative viability (Idelalisib + Vorinostat; first compound 0.4 µM): 0.761
- relative viability (Idelalisib + Vorinostat; first compound 1.265 µM): 0.716
- relative viability (Idelalisib + Vorinostat; first compound 4 µM): 0.669

Cell Line: NCI-H2228
- relative viability (Pemetrexed + Luminespib; first compound 0.002 µM): 0.18
- relative viability (Pemetrexed + Luminespib; first compound 0.02 µM): 0.153
- relative viability (Pemetrexed + Luminespib; first compound 0.06325 µM): 0.115
- relative viability (Pemetrexed + Luminespib; first compound 0.2 µM): 0.124
- relative viability (Idelalisib + Crizotinib; first compound 0.04 µM): 0.476
- relative viability (Idelalisib + Crizotinib; first compound 0.1265 µM): 0.389
- relative viability (Idelalisib + Crizotinib; first compound 0.4 µM): 0.354
- relative viability (Idelalisib + Crizotinib; first compound 1.265 µM): 0.413
- relative viability (Idelalisib + Crizotinib; first compound 4 µM): 0.355
- relative viability (Idelalisib + Trametinib; first compound 0.04 µM): 0.49
- relative viability (Idelalisib + Trametinib; first compound 0.1265 µM): 0.684
- relative viability (Idelalisib + Trametinib; first compound 0.4 µM): 0.429
- relative viability (Idelalisib + Trametinib; first compound 1.265 µM): 0.583
- relative viability (Idelalisib + Trametinib; first compound 4 µM): 0.381
- relative viability (Idelalisib + Vorinostat; first compound 0.04 µM): 0.812
- relative viability (Idelalisib + Vorinostat; first compound 0.1265 µM): 0.53
- relative viability (Idelalisib + Vorinostat; first compound 0.4 µM): 0.482
- relative viability (Idelalisib + Vorinostat; first compound 1.265 µM): 0.588
- relative viability (Idelalisib + Vorinostat; first compound 4 µM): 0.613

Cell Line: NCI-H2347
- relative viability (Pemetrexed + Luminespib; first compound 0.002 µM): 0.0507
- relative viability (Pemetrexed + Luminespib; first compound 0.006325 µM): 0.281
- relative viability (Pemetrexed + Luminespib; first compound 0.02 µM): 0.551
- relative viability (Pemetrexed + Luminespib; first compound 0.06325 µM): 0.55
- relative viability (Pemetrexed + Luminespib; first compound 0.2 µM): 0.381
- relative viability (Idelalisib + Crizotinib; first compound 0.04 µM): 0.586
- relative viability (Idelalisib + Crizotinib; first compound 0.1265 µM): 0.734
- relative viability (Idelalisib + Crizotinib; first compound 0.4 µM): 0.64
- relative viability (Idelalisib + Crizotinib; first compound 1.265 µM): 0.851
- relative viability (Idelalisib + Crizotinib; first compound 4 µM): 0.666
- relative viability (Idelalisib + Trametinib; first compound 0.04 µM): 0.267
- relative viability (Idelalisib + Trametinib; first compound 0.1265 µM): 0.282
- relative viability (Idelalisib + Trametinib; first compound 0.4 µM): 0.246
- relative viability (Idelalisib + Trametinib; first compound 1.265 µM): 0.278
- relative viability (Idelalisib + Trametinib; first compound 4 µM): 0.229
- relative viability (Idelalisib + Vorinostat; first compound 0.04 µM): 0.639
- relative viability (Idelalisib + Vorinostat; first compound 0.1265 µM): 0.572
- relative viability (Idelalisib + Vorinostat; first compound 0.4 µM): 0.511
- relative viability (Idelalisib + Vorinostat; first compound 1.265 µM): 0.624
- relative viability (Idelalisib + Vorinostat; first compound 4 µM): 0.403

Reference: the supplement of paper PMC10307832
